Laboratory results: patent US5039706A, “Antiinflammatory PLA2 inhibitors” (Du Pont Merck Pharmaceutical Company, priority 1989, dated 1991)
Counter-ions that a name gives are not always drawn.

What follows are compounds tested on inflammation induced by tetradecanoyl phorbol acetate (TPA) (assay: TPA inflammation inhibition test (mouse ear edema)). Details: topical, 4 h, TPA to right ear, edema measured four hours later, read-out: % Inhibition of Control Swelling.
Type: in vivo, mice
Set-up: dose or concentration left out as unconfirmed
Text: One such model is the inflammation induced by tetradecanoyl phorbol acetate (TPA), modified from the method of Kuehl et al., Nature, 1977, 265, 170; and Van Arman, Clin. Pharmacol. Ther., 1974, 16, 900. The TPA model mimics many of the inflammatory changes which occur in human skin diseases such as psoriasis, since elevated levels of inflammatory arachidonic acid metabolites are found and an influx of polymorphonuclear leukocytes is observed. The test procedure used to evaluate the compounds of Formula (I) is as follows: the test compound […] is applied to both ears of mice in an appropriate vehicle, such as acetone, and then the inflammatory stimulus (TPA) is applied to the right ear. Four hours later, the edema is measured by removing standard size discs from the ears using a biopsy punch. A control group of animals receives TPA in vehicle applied to the right ear, and vehicle alone to the left ear. The weights of the ear discs are determined, and the suppression of swelling observed in animals treated with the test compound is determined.
`CC1(C)C2CCC(CNCCC(N)c3ccc(F)cc3)C1C2` (single isomer, unassigned) [Example 11, 4-Fluoro-α-(2-[(1α,2α,5α-7,7-dimethylbicyclo[3.1.1]-heptanyl-2-methyl)amino]ethyl)benzenemethanamine Dihydrochloride] was tested, and the inhibition in vivo was 45%. Compound `CC(C)c1ccc2c(c1)CCC1C(C)(CNCCC(N)c3ccc(F)cc3)CCCC21C` (stereo not drawn) [Example 1, α-(2-[1,4a-Dimethyl-7-(2-propyl)-1,2,3,4,4a,9,10,10a-octahydro-1-phenanthrenylmethylamino]ethyl)-4-fluorobenzenemethanamine Dihydrochloride] has an inhibition in vivo of 89%. In the case of `CCCCCCCCSCCCC(N)c1ccc(F)cc1` (stereo not drawn) [Example 5, 4-Fluoro-α-[3-(octylthio)propyl]benzenemethanamine Hydrochloride], the inhibition in vivo is reported as 46%. For `Cc1ccc(SCCCC(N)c2ccc(F)cc2)cc1` (stereo not drawn) [Example 7, 4-Fluoro-α-[3-(4-methylphenylthio)propyl]benzenemethanamine Hydrochloride], the inhibition in vivo was 22%. Compound `CC(C)c1ccc2c(c1)CCC1C(C)(CNCCCC(N)c3ccc(F)cc3)CCCC21C` (stereo not drawn) [Example 8, 4-Fluoro-α-(4-[1,4a-dimethyl-7-(2-propyl)-1,2,3,4,4a,9,10,10a-octahydro-1-phenanthrenylmethylamino]propyl)-benzenemethanamine Dihydrochloride] has an inhibition in vivo of 50%. `NC(CCCSc1ccncc1)c1ccc(F)cc1` (stereo not drawn) [Example 10, 4-Fluoro-α-[3-(4-pyridinylthio)propyl]benzenemethanamine Dihydrochloride] gave an inhibition in vivo of 24%. With `CCCCCCCCNCCC(N)c1ccc(F)cc1` (stereo not drawn) [Example 21, 4-Fluoro-α-[2-(octylamino)ethyl]benzenemethanamine Dihydrochloride] the inhibition in vivo was 68%. Work on `COc1ccc(CNCCC(N)c2ccc(F)cc2)c2ccccc12` (stereo not drawn) [Example 22, 4-Fluoro-α-(2-[(4-methoxynaphthalenyl)methylamino]ethyl)benzenemethanamine Dihydrochloride] yielded an inhibition in vivo of 26%. With `CCCCCCCNCCC(N)c1ccc(F)cc1` (stereo not drawn) [Example 26, 4-Fluoro-α-[2-heptylamino)ethyl]benzenemethanamine Dihydrochloride] the inhibition in vivo was 52%. `CCCCCCCCCCCNCCC(N)c1ccc(F)cc1` (stereo not drawn) [Example 27, 4-Fluoro-α-[2-undecylamino)ethyl]benzenemethanamine Dihydrochloride] was tested, and the inhibition in vivo was 51%. Compound `CCCCCCNCCC(N)c1ccc(F)cc1` (stereo not drawn) [Example 28, 4-Fluoro-α-[2-(hexylamino)ethyl]benzenemethanamine Dihydrochloride] has an inhibition in vivo of 51%. Work on `CC1(C)C2CCC(CNCCC(N)c3ccc(F)cc3)C1C2` (stereo not drawn) [Example 30, α-[2-(7,7-Dimethylbicyclo[3,1,1]heptyl-2-methylamino)ethyl]-4-fluoro-benzenemethanamine Dihydrochloride] yielded an inhibition in vivo of 34%. For `CC(C)(C)CC(C)(C)NCCC(N)c1ccc(F)cc1` (stereo not drawn) [Example 34, 4-Fluoro-α-[2-(1,1,3,3-tetramethylbutyl)aminoethyl]benzenemethanamineDihydrochloride], the inhibition in vivo was 22%. `CC(NCCC(N)c1ccc(Cl)cc1)C12CC3CC(CC(C3)C1)C2` (stereo not drawn) [Example 36, 4-Chloro-α-(2-[1-(3-adamantyl)ethylamino]ethyl)benzenemethanamine Dihydrochloride] was tested, and the inhibition in vivo was 48%. `NC(CCCSc1ccccc1)c1ccc(F)cc1` (stereo not drawn) [Example 38, 4-Fluoro-α-(3-phenylthiopropyl)benzenemethanamine Hydrochloride] was tested, and the inhibition in vivo was 30%. For `CC(NCCC(N)c1ccc(F)cc1)C12CC3CC(CC(C3)C1)C2` (stereo not drawn) [Example 39, 4-Fluoro-α-(2-[1-(3-adamantyl)ethylamino]ethyl)benzenemethanamine Dihydrochloride], the inhibition in vivo was 50%. With `NC(CCNCCc1cccc2ccccc12)c1ccc(F)cc1` (stereo not drawn) [Example 40, 4-Fluoro-α-(2-[2-(1-naphthalenyl)ethylamino]ethyl)benzenemethanamine Dihydrochloride] the inhibition in vivo was 29%. With `CCCCCCCCCCCCCCCCCCNCCC(N)c1ccc(F)cc1` (stereo not drawn) [Example 42, 4-Fluoro-α-[2-(octadecylamino)ethyl]benzenemethanamine Dihydrochloride] the inhibition in vivo was 22%. With `NC(CCCSc1ccc(F)cc1)c1ccc(F)cc1` (stereo not drawn) [Example 44, 4-Fluoro-α-[3-(4-Fluorophenylthio)propyl]benzenemethanamine Hydrochloride] the inhibition in vivo was 25%. `CC(C)c1ccc2c(c1)CCC1C(C)(CNCCC(N)c3ccccc3)CCCC21C` (stereo not shown) [Example 56, Dihydrochloride] gave an inhibition in vivo of 64%. `COc1ccc(C(N)CCNCC2(C)CCCC3(C)c4ccc(C(C)C)cc4CCC23)cc1` (stereo not drawn) [Example 57, α-(2-[1,4a-Dimethyl-7-(2-propyl)-1,2,3,4,4a,9,10,10a-octahydro-1-phenanthrenylmethylamino]ethyl)-4-methoxybenzenemethanamine Dihydrochloride] gave an inhibition in vivo of 60%. `CCCCCCC(C)OCCCC(N)c1ccc(F)cc1` (stereo not drawn) [Example 61, 4-Fluoro-α-[3-(2-octyloxy)propyl]benzenemethanamine] showed an inhibition in vivo of 25%.
